Source: patent publication US20110045101A1, “FUNGICIDAL SUBSTITUTED AZOLES” (E.I. Du Pont De Nemours and Company, priority 2009, published 2011)
Marks after values point to notes of the source that are not given here.

Key:
Type in all cases: in vivo
Settings in all cases: 100 = 100% disease control
[1] = test system: Septoria nodorum; assay: Test F: wheat glume blotch on wheat seedlings, sprayed the day before inoculation, visual disease rating
Text: (§1) General protocol for preparing test suspensions for Tests A-J: The test compounds were first dissolved in acetone in an amount equal to 3% of the final volume and then suspended at the desired concentration (in ppm) in acetone and purified water (50/50 mix) containing 250 ppm of the surfactant Trem® 014 (polyhydric alcohol esters). The resulting test suspensions were then used in tests A-J. Spraying a 200 ppm test suspension to the point of run-off on the test plants was the equivalent of a rate of 500 g/ha. […] The test suspension was sprayed to the point of run-off on wheat seedlings. […] A dash (-) indicates no test results. All results are for 200 ppm except where followed by “*”, which indicates 40 ppm.

[2] = test system: Alternaria solani; assay: Test D: tomato early blight, sprayed the day before inoculation, visual disease rating
Text: as §1

[3] = test system: Botrytis cinerea; assay: Test C: tomato Botrytis on tomato seedlings, sprayed the day before inoculation, visual disease rating
Text: General protocol for preparing test suspensions for Tests A-J: The test compounds were first dissolved in acetone in an amount equal to 3% of the final volume and then suspended at the desired concentration (in ppm) in acetone and purified water (50/50 mix) containing 250 ppm of the surfactant Trem® 014 (polyhydric alcohol esters). The resulting test suspensions were then used in tests A-J. Spraying a 200 ppm test suspension to the point of run-off on the test plants was the equivalent of a rate of 500 g/ha. […] The test suspension was sprayed to the point of run-off on tomato seedlings. […] A dash (-) indicates no test results. All results are for 200 ppm except where followed by “*”, which indicates 40 ppm.

[4] = test system: Puccinia recondita f. sp. tritici; assay: Test I: wheat leaf rust on wheat seedlings, sprayed the day before inoculation, visual disease rating
Text: as §1

[5] = test system: Septoria tritici; assay: Test G: wheat leaf blotch on wheat seedlings, sprayed the day before inoculation, visual disease rating
Text: General protocol for preparing test suspensions for Tests A-J: The test compounds were first dissolved in acetone in an amount equal to 3% of the final volume and then suspended at the desired concentration (in ppm) in acetone and purified water (50/50 mix) containing 250 ppm of the surfactant Trem® 014 (polyhydric alcohol esters). The resulting test suspensions were then used in tests A-J. Spraying a 200 ppm test suspension to the point of run-off on the test plants was the equivalent of a rate of 500 g/ha. […] The test suspension was sprayed to the point of run-off on wheat seedlings. The following day the seedlings were inoculated with a spore suspension of Septoria tritici (the causal agent of wheat leaf blotch) and incubated in saturated atmosphere at 24° C. for 48 h, and then moved to a growth chamber at 20° C. for 19 days, after which time visual disease ratings were made. […] A dash (-) indicates no test results. All results are for 200 ppm except where followed by “*”, which indicates 40 ppm.

[6] = test system: Erysiphe graminis f. sp. tritici; assay: Test J: wheat powdery mildew on wheat seedlings, sprayed the day before inoculation, visual disease rating
Text: as §1

[7] = 200 ppm, 0 = no control relative to controls

Row | SMILES | Test F disease control rating [1, 7] | Test D disease control rating [2, 7] | Test C disease control rating [3, 7] | Test I disease control rating [4, 7] | Test G disease control rating [5, 7] | Test J disease control rating [6, 7] | Test F disease control rating ([1]; 40 ppm (marked *)) | Test D disease control rating ([2]; 40 ppm (marked *)) | Test C disease control rating ([3]; 40 ppm (marked *)) | Test I disease control rating ([4]; 40 ppm (marked *)) | Test G disease control rating ([5]; 40 ppm (marked *)) | Test J disease control rating ([6]; 40 ppm (marked *))
1 | Cc1nn(C)c(-c2c(Cl)cccc2Cl)c1-c1ccc(Cl)cc1 [compound 87] | 0% | 0% | 0% | 27% | 84% | 99% |  |  |  |  |  | 
2 | Cc1nn(C)c(-c2c(Cl)cccc2Cl)c1-c1cccc(F)c1 [compound 88] | 0% | 0% | 75% | 68% | 0% | 99% |  |  |  |  |  | 
3 | Cc1nn(C)c(-c2c(Cl)cccc2Cl)c1-c1ccc(Cl)c(F)c1 [compound 89] | 0% | 0% | 0% | 85% | 3% | 98% |  |  |  |  |  | 
4 | Fc1cccc(Cl)c1-c1c(Cl)nc(C(F)(F)F)n1-c1ccc(Cl)cc1 [compound 90] | 0% | 0% | 0% | 54% | 0% | 0% |  |  |  |  |  | 
5 | Cc1nc(Cl)c(-c2c(F)ccc(Br)c2F)n1-c1ccc(Cl)cc1 [compound 91] | 100% | 100% | 98% | 96% | 99% | 100% |  |  |  |  |  | 
6 | Cc1nc(Cl)c(-c2c(F)cccc2F)n1-c1ccc(C(F)(F)F)cc1 [compound 92] | 0% | 100% | 76% | 89% | 98% | 100% |  |  |  |  |  | 
7 | Cc1nc(Cl)c(-c2cc(F)ccc2F)n1-c1ccc(Cl)cc1 [compound 93] | 100% | 100% | 97% | 98% | 99% | 100% |  |  |  |  |  | 
8 | Cc1nc(Cl)c(-c2c(F)cccc2C(F)(F)F)n1-c1ccc(Cl)cc1 [compound 94] | 0% | 53% | 56% | 99% | 95% | 100% |  |  |  |  |  | 
9 | Fc1cccc(F)c1-c1c(Cl)nc(Br)n1Cc1ccccc1 [compound 95] | 95% | 97% | 96% | 100% | 95% | 100% |  |  |  |  |  | 
10 | COc1cc(F)c(-c2c(Br)nc(OC)n2-c2ccc(Cl)cc2)c(F)c1 [compound 96] |  |  |  |  |  |  | 97* % | 100* % | 98* % | 97* % | 97* % | 99* %
11 | Cc1ccc(F)c(-c2c(Cl)ncn2-c2ccc(Cl)cc2)c1F [compound 97] | 0% | 97% | 94% | 91% | 95% | 99% |  |  |  |  |  | 
12 | Fc1cc(F)c(-n2cnc(Cl)c2-c2ccc(Cl)cc2)c(F)c1 [compound 98] |  |  |  |  |  |  | 0* % | 0* % | 0* % | 0* % | 27* % | 0* %
13 | CN(C)c1ncn(Cc2ccc(Cl)cc2)c1-c1c(F)cccc1F [compound 99] | 0% | 0% | 0% | 91% | 25% | 0% |  |  |  |  |  | 
14 | Fc1ccc(Cl)c(F)c1-c1c(Cl)nc(Br)n1-c1ccc(Cl)cc1 [compound 100] | 99% | 93% | 97% | 98% | 97% | 99% |  |  |  |  |  | 
15 | Fc1cccc(F)c1-c1c(Cl)nc(Br)n1Cc1cccc(Cl)c1 [compound 101] | 0% | 0% | 88% | 100% | 97% | 99% |  |  |  |  |  | 
16 | Fc1cc(Cn2c(Br)nc(Cl)c2-c2c(F)cccc2F)ccc1Cl [compound 102] | 55% | 0% | 98% | 99% | 97% | 99% |  |  |  |  |  | 
17 | Fc1cccc(F)c1-c1c(Cl)nc(Br)n1Cc1ccc(Cl)cc1 [compound 103] | 90% | 92% | 79% | 100% | 98% | 99% |  |  |  |  |  | 
18 | Cc1ccc(F)c(-c2c(Cl)nc(Br)n2-c2ccc(Cl)cc2)c1F [compound 105] | 94% | 99% | 98% | 99% | 94% | 100% |  |  |  |  |  | 
19 | COc1ccc(-c2c(Cl)ncn2-c2ccc(Cl)cc2)c(F)c1 [compound 106] | 64% | 99% | 100% | 99% | 93% | 95% |  |  |  |  |  | 
20 | Cc1ccc(F)c(-c2c(Cl)nc(C)n2-c2ccc(Cl)cc2)c1F [compound 107] | 100% | 100% | 96% | 100% | 96% | 100% |  |  |  |  |  | 
21 | CCc1nc(Cl)c(-c2c(F)cccc2F)n1-c1ccc(Cl)cc1 [compound 108] |  |  |  |  |  |  | 0* % | 100* % | 100* % | 98* % | 74* % | 99* %
22 | COc1ccc(-c2c(Cl)nc(Br)n2-c2ccc(Cl)cc2)c(F)c1 [compound 110] | 100% | 99% | 94% | 97% | 95% | 96% |  |  |  |  |  | 
23 | COc1ccc(F)c(-c2c(Cl)ncn2-c2ccc(Cl)cc2)c1F [compound 112] | 89% | 100% | 99% | 99% | 98% | 99% |  |  |  |  |  | 
24 | COc1ccc(-c2c(Cl)nc(C)n2-c2ccc(Cl)cc2)c(F)c1 [compound 113] | 97% | 99% | 98% | 97% | 95% | 97% |  |  |  |  |  | 
25 | COc1ccc(-c2c(Cl)nc(C)n2-c2ccc(Cl)cc2)c(F)c1C [compound 114] | 0% | 0% | 93% | 41% | 95% | 72% |  |  |  |  |  | 
26 | CC(C)c1nc(Cl)c(-c2c(F)cccc2F)n1-c1ccc(Cl)cc1 [compound 116] |  |  |  |  |  |  | 0* % | 0* % | 0* % | 0* % | 0* % | 0* %
